Experimental data reported in patent EP2022493A1, “Composition comprising at least one optically active phthalamide derivative for controlling animal parasites” (Bayer CropScience AG, priority 2007, dated 2009).

Tests used:
[1] = Determination of the logP values by HPLC on reversed-phase column (C 18); format: physicochemical
Experimental: Determination of the logP values:
The lambda max values were determined in the maxima of the chromatographic signals using the UV spectra from 190 nm to 400 nm.

Boophilus microplus = Boophilus microplus - test (injection into adult ticks); format: in vivo; settings: application rate of 20 µg/animal; injected into the abdomen of adult ticks; seven days
Experimental: Boophilus microplus - test Solvent: dimethylsulfoxide To produce a suitable preparation of active compound, 1 part by weight of active compound is mixed with the stated amount of solvent, and the concentrate is diluted with containing solvent to the desired concentration. Adult ticks (Boophilus microplus) are treated by injected with compound solution of the desired concentration into the abdomen. Ticks are transferred into replica plates and incubated in a climate chamber for seven days. Eggs which are not clearly fertile or infertile are further incubated for another 35 days until larvae hatch from the untreated controls. After the specified period of time, the laying of fertile eggs in % is determined. 100 % means that all eggs have been fertile; 0 % means that none of the eggs have been fertile.

Musca domestica = Musca domestica - test; format: in vivo; settings: adults; for mortality at 100 ppm: application rate of 100ppm; for mortality at 20 ppm: application rate of 20ppm
Experimental: (§1) Solvent: dimethyl sulfoxide
(§2) To produce a suitable preparation of active compound, 10 mg of active compound are dissolved in 0.5 ml solvent, and the concentrate is diluted with water to the desired concentration.
Prior to the assay, a piece or kitchen sponge is soaked with a mixture of sugar and compound solution and placed into a container. 10 adults (Musca domestica) are placed into the container and closed with a perforated lid.
After the specified period of time, mortality in % is determined. 100 % means that all the flies have been killed; 0 % means that none of the flies have been killed.

Lucilia cuprina larvae = assay: Lucilia cuprina - test (larvae); format: in vivo; settings: in Ovis aries, read-out: activity (mortality in %)
Experimental: as §1, §2
Approximately 20 -30 (Lucilia cuprina larvae) are transferred into a test tube containing 1cm^3 of minced horse meat and 0.5 ml aqueous dilution of test compound.
After the specified period of time, mortality in % is determined. 100 % means that all the larvae have been killed; 0 % means that none of the larvae have been killed.

[2] = 0.001 m aqueous nh4hco3/acetonitrile, method [c]: 0.001 molar aqueous NH4HCO3 solution and acetonitrile at pH 7.8, linear gradient from 10 % to 95 % acetonitrile (v/v), HPLC reversed-phase C 18, 40 °C
[3] = 0.1% aqueous phosphoric acid/acetonitrile, method [a]: 0.1% aqueous phosphoric acid and acetonitrile at pH 2.3, linear gradient from 10 to 95 % (v/v) acetonitrile, HPLC reversed-phase C 18, 40 °C
[4] = 0.001 m aqueous nh4hco3/acetonitrile, HPLC, reversed-phase C 18, 40 °C, [c] 0.001 molar aqueous NH4HCO3 solution and acetonitrile at pH 7.8, linear gradient from 10 % to 95 % acetonitrile (v/v)
[5] = 0.1% aqueous phosphoric acid/acetonitrile, HPLC, reversed-phase C 18, 40 °C, [a] 0.1% aqueous phosphoric acid and acetonitrile at pH 2.3, linear gradient from 10 to 95 % (v/v) acetonitrile

Row | Structure (SMILES) | chromatographic logP [1, 2] | chromatographic logP [1, 3] | activity (laying of fertile eggs in %) (Boophilus microplus) | mortality at 100 ppm (Musca domestica) | mortality at 100 ppm (Lucilia cuprina larvae) | chromatographic logP [1, 4] | chromatographic logP [1, 5] | mortality at 20 ppm (Musca domestica)
1 | Cc1cc(C(F)(C(F)(F)F)C(F)(F)F)ccc1NC(=O)c1cccc(I)c1C(=O)N[C@@H](C)CS(C)(=O)=O [Compound 1] | 3.2 | 3.18 | ≥ 80% | ≥ 80% | ≥ 80% |  |  | 
2 | CCSC[C@H](C)NC(=O)c1c(I)cccc1C(=O)Nc1ccc(C(C(F)F)C(F)(F)F)cc1C (stereo partly drawn) [Compound 210] |  |  | ≥ 80% | ≥ 80% | ≥ 80% | 3.62 | 3.63 | 
3 | CCSC[C@H](C)NC(=O)c1c(I)cccc1C(=O)Nc1ccc(C(F)(C(F)F)C(F)(F)F)cc1C (stereo partly drawn) [Compound 218] |  |  | ≥ 80% | ≥ 80% | ≥ 80% | 3.96 | 3.96 | 
4 | CSC[C@H](C)NC(=O)c1c(I)cccc1C(=O)Nc1ccc(C(C(F)F)C(F)(F)F)cc1Br (stereo partly drawn) [Compound 227] |  |  | ≥ 80% | ≥ 80% | ≥ 80% | 3.54 | 3.51 | 
5 | CCSC[C@H](C)NC(=O)c1c(I)cccc1C(=O)Nc1ccc(C(C(F)F)C(F)(F)F)cc1Cl (stereo partly drawn) [Compound 235] |  |  | ≥ 80% | ≥ 80% | ≥ 80% | 3.79 | 3.76 | 
6 | CCSC[C@H](C)NC(=O)c1c(I)cccc1C(=O)Nc1ccc(C(C(F)F)C(F)(F)F)cc1Br (stereo partly drawn) [Compound 243] |  |  | ≥ 80% | ≥ 80% | ≥ 80% | 3.8 | 3.78 | 
7 | CCS(=O)(=O)C[C@H](C)NC(=O)c1c(I)cccc1C(=O)Nc1ccc(C(F)(C(F)F)C(F)(F)F)cc1Cl (stereo partly drawn) [Compound 251] |  |  | ≥ 80% | ≥ 80% | ≥ 80% | 3.18 | 3.12 | 
8 | C[C@@H](CS(C)(=O)=O)NC(=O)c1c(I)cccc1C(=O)Nc1ccc(C(C(F)F)C(F)(F)F)cc1F (stereo partly drawn) [Compound 291] |  |  | ≥ 80% | ≥ 80% | ≥ 80% | 2.54 | 2.5 | 
9 | CCS(=O)(=O)C[C@H](C)NC(=O)c1c(I)cccc1C(=O)Nc1ccc(C(C(F)F)C(F)(F)F)cc1Br (stereo partly drawn) [Compound 299] |  |  | ≥ 80% | ≥ 80% | ≥ 80% | 2.92 | 2.87 | 
10 | CCS(=O)(=O)C[C@H](C)NC(=O)c1c(I)cccc1C(=O)Nc1ccc(C(C(F)F)C(F)(F)F)cc1F (stereo partly drawn) [Compound 315] |  |  | ≥ 80% | ≥ 80% | ≥ 80% | 2.69 | 2.65 | 
11 | Cc1c(NC(=O)c2cccc(I)c2C(=O)N[C@@H](C)C[S+](C)[O-])ccc(C(F)(F)C(F)(F)F)c1F (stereo partly drawn) [Compound 323] |  |  | ≥ 80% | ≥ 80% | ≥ 80% |  | 2.5 | 
12 | Cc1c(NC(=O)c2cccc(Cl)c2C(=O)N[C@@H](C)CS(C)(=O)=O)ccc(C(F)(F)C(F)(F)F)c1F [Compound 363] |  |  | ≥ 80% | ≥ 80% | ≥ 80% |  | 2.82 | 
13 | Cc1cc(C(F)(C(F)F)C(F)(F)F)ccc1NC(=O)c1cccc(Cl)c1C(=O)N[C@@H](C)CS(C)(=O)=O (stereo partly drawn) [Compound 371] | 2.64 | 2.61 | ≥ 80% | ≥ 80% | ≥ 80% |  |  | 
14 | CCS(=O)(=O)C[C@H](C)NC(=O)c1c(Cl)cccc1C(=O)Nc1ccc(C(F)(F)C(F)(F)F)c(F)c1C [Compound 372] |  | 3.01 | ≥ 80% |  | ≥ 80% |  |  | ≥ 80%
15 | CSC[C@H](C)NC(=O)c1c(Br)cccc1C(=O)Nc1ccc(C(F)(C(F)(F)F)C(F)(F)F)c(F)c1C [Compound 398] |  | 4.31 | ≥ 80% | ≥ 80% | ≥ 80% |  |  | 
16 | Cc1c(NC(=O)c2cccc(Cl)c2C(=O)N[C@@H](C)C[S+](C)[O-])ccc(C(C(F)(F)F)C(F)(F)F)c1F (stereo partly drawn) [Compound 406] | 2.41 | 2.5 | ≥ 80% | ≥ 80% | ≥ 80% |  |  | 
17 | Cc1cc(C(C(F)(F)F)C(F)(F)F)c(F)cc1NC(=O)c1cccc(Cl)c1C(=O)N[C@@H](C)C[S+](C)[O-] (stereo partly drawn) [Compound 414] | 2.51 | 2.58 | ≥ 80% | ≥ 80% | ≥ 80% |  |  | 
18 | CSC[C@H](C)NC(=O)c1c(I)cccc1C(=O)Nc1ccc(C(F)(C(F)(F)F)C(F)(F)F)c(F)c1C [Compound 423] |  | 4.41 | ≥ 80% | ≥ 80% | ≥ 80% |  |  | 
19 | CCS(=O)(=O)C[C@H](C)NC(=O)c1c(Br)cccc1C(=O)Nc1ccc(C(C)(F)C(F)F)cc1Br (stereo partly drawn) [Compound 424] |  | 3.06 | ≥ 80% | ≥ 80% | ≥ 80% |  |  | ≥ 80%
